The METLIN SMRT retention time set (Domingo-Almenara et al. 2019)

Assay: gradient 5% acetonitrile 3 min, to 50% in 2 min, to 85% in 15 min, held 3 min, 100 µL/min
Conditions: column: Zorbax Extend-C18 2.1 x 50 mm; eluents: water / acetonitrile, 0.1% formic acid
Procedure, shortened: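 Pure standards were analyzed in mixtures of ~100 molecules using HPLC coupled to a quadrupole time-of-flight mass spectrometer, in both positive and negative ionization mode. Separation used a Zorbax Extend-C18 column (2.1 × 50 mm, 1.8 μm) at 100 μL/min, with water and acetonitrile each containing 0.1% formic acid. Dead and dwell volumes were 40 μL and 900 μL, and data were collected over 3 months. Retention time was read from computationally picked adduct peaks, each inspected manually.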

SMILES | RP-LC retention time [s]
Cc1cccc(CNC(=O)C2=C3CCCN3c3ccccc3S2(=O)=O)c1 | 856
Cc1ccc2c(NCc3ccc(Cl)cc3)c(-c3nc(C)no3)cnc2n1 | 727
CCCCOc1ccc(NC(=O)N(Cc2ccccn2)Cc2ccco2)cc1 | 788
COc1ccc2c(CCN)c[nH]c2c1 | 565
Cc1ccc(Cn2cc(-c3ccncc3)cc2C(=O)N(C)Cc2ccccc2)cc1 | 751
CCn1c(=O)c2c(cc(C)n2C)n(CC(=O)Nc2ccccc2C)c1=O | 776
CCOC(=O)c1cc(C2CC2)nc2c1c(=O)n(Cc1cccc(C)c1)c(=O)n2C | 1230
COc1ccc(OCc2noc(CNC(=O)c3cnn(-c4ccccc4)c3C)n2)cc1 | 799
CCCCn1c(=O)c2ccccc2n(Cc2nc(-c3ccc4c(c3)OCO4)no2)c1=O | 1130
COc1c(C=O)c2c(c(OC)c1OC)-c1ccc(OC)c(=O)cc1[C@@H](NC(C)=O)CC2 | 725
Cc1cc(C)c2c(n1)SCC(=O)N2CC(=O)NCCN(C)C1CCCCC1 | 585
Cc1nc2ccccc2c(=O)n1Cc1noc(-c2cccc(Br)c2)n1 | 948
CCOc1ccc(-c2nc(Cc3noc(-c4ccc(C#N)cc4)n3)c(C)o2)cc1 | 1160
COCCCNC(=O)Cn1nc(-n2c(C)ccc2C)c2c(C)cc(C)nc21 | 874
COc1cccc2cc(C(=O)NCc3cccnc3)oc12 | 564
CCCNC(=O)Cn1c(=O)cc(-c2nc(C(C)C)no2)c2ccccc21 | 835
COc1ccc(C2Cn3nnc(-c4nc(-c5ccccc5OC)no4)c3CO2)cc1 (stereo not given) | 1010
O=C(NCc1cccc(F)c1)c1ccc(-c2cccs2)nc1 | 894
CCOC(=O)Cn1c(=O)c2cnc(-c3ccc(Cl)cc3)nc2n(C)c1=O | 1130
O=C(Cc1cccc(F)c1)Nc1nnc(C2CC(=O)N(c3ccc(F)cc3)C2)o1 (stereo not given) | 726
CC(C)CCNC(=O)NCCn1c(-c2ccc(F)cc2)nc2ccccc21 | 650
O=C(Nc1ccc2c(c1)OCCO2)N1CC(c2nc(CCOCC3CC3)no2)C1 | 754

SMILES | RP-LC retention time [s]
COc1ccc(OC)c(NC2=NS(=O)(=O)C(c3ccccc3)=C2C)c1 | 948
Cn1ncc2c3ccccc3n(CCCC(=O)NCc3ccc4c(c3)OCO4)c2c1=O | 751
COc1ccc(-c2noc(C3CCCN3C(=O)c3ccc(C)s3)n2)cc1 (stereo not given) | 996
COc1cccc(CNC(=O)Cn2c(=O)c3cc(-c4ccco4)nn3c3ncccc32)c1 | 771
Cc1cc2nc(C(=O)NC3CC3)c(=O)n(C)c2cc1C | 714
CCC(=O)NC(c1ccc(N(C)C)cc1)c1ccc2cccnc2c1O (stereo not given) | 620
Cc1noc2nc(C)n(CC(=O)Nc3ccccc3F)c(=O)c12 | 752
O=C(NC1CC(=O)N(C2CC2)C1)c1cc(-c2ccccc2)n[nH]1 (stereo not given) | 607
O=C(NCc1ccccc1)N1CCc2nc(-c3ccccc3)ncc2C1 | 848
COc1ccc(NC(=O)N(C)CC2CCOCC2)cc1F | 682
O=C(c1cc2ccccc2[nH]1)N1CCN(c2ccc(=O)n(-c3ccc(Cl)cc3)n2)CC1 | 918
COc1ccc(C(=O)N2CCc3cn(C)c4cccc(c34)C2)cc1 | 920
Cc1ccc(C)c(Cn2ccn3nc(-c4ccccc4)c(CO)c3c2=O)c1 | 1030
COC(=O)c1c(NCc2ccccc2C)c2cccc(Cl)c2[nH]c1=O | 859
CC(C)NC(=O)c1cnn2c(-c3ccccn3)ccnc12 | 718
CC(=O)Nc1ccc(C2(C(=O)NCc3ccccc3F)CCC2)cc1 | 732
CCNC(=O)c1n[nH]c2c1CC(C)CC2 (stereo not given) | 685
Cc1noc(C)c1S(=O)(=O)N1[C@H]2CC[C@@H]1c1cnc(-c3ccccc3)nc1C2 | 1050
Cc1nn(-c2ccccc2)c(C)c1CCc1nn2c(-c3ccccc3F)nnc2s1 | 865
O=C(Cn1nc2n(c1=O)CCCC2)Nc1cccc(Br)c1 | 686
CC(C)C(=O)N1CCC2(CC1)CCC(O)(CN(C)C)CC2 | 559

Results, then the molecule that gave them:

RP-LC retention time [s] | SMILES
679 | CCN1CCC(N(Cc2cccs2)C(=O)Nc2ccccc2Br)CC1
733 | O=C(CN1C(=O)NC2(CCCCC2)C1=O)NCc1ccccc1F
949 | Cc1cccc(NS(=O)(=O)c2ccc(-c3nnc(C4CCC4)o3)o2)c1C
721 | COc1ccc(OC)c(NC(=O)N2CCN(Cc3nc4cc(C)ccc4o3)CC2)c1
600 | CCN(CC)CCCNC(=O)c1nnc(-c2ccc(S(=O)(=O)N3CCOCC3)cc2)o1
805 | CC(C)c1ccc(S(=O)(=O)N2CCC(C(=O)NCc3cscn3)CC2)cc1
788 | COc1ccc(CC(=O)N2CCN(c3ccc(-c4nc(C)cs4)cn3)CC2)cc1OC
964 | COc1ccccc1NC(=O)C1CCCN(S(=O)(=O)c2cc(-c3noc(C)n3)cs2)C1 (stereo not given)
1140 | CCc1ccc(CNC(=O)C2CCCN(c3nccnc3Sc3ccccc3)C2)cc1 (stereo not given)
1010 | CCCn1cc(C2=CCN(C(=O)Nc3ccc(C)c(C)c3)CC2)c2cccnc21
718 | Cc1c(Cl)cccc1NC(=O)N1C[C@@H](F)C[C@H]1C(=O)N1CCCCC1
813 | COc1ccc(-c2nnc(-c3cccc(S(=O)(=O)N4CCOCC4)c3)o2)cc1OC
595 | CSc1ccccc1CN1CCC(CNC(=O)C(=O)NCc2cccs2)CC1
750 | O=C(C1CCN(Cc2cnn(-c3ccccc3)c2-n2cccc2)CC1)N1CCN(c2ccccc2)CC1
1140 | CC1CCN(S(=O)(=O)c2ccc(-c3nnc(C(=O)NCC(C)c4ccccc4)o3)cc2)CC1 (stereo not given)
935 | CCc1cc(=O)n(CC(=O)Nc2cc(Cl)ccc2OC)c(N2CCOCC2)n1
732 | CCOC(=O)N1CCN(C(=O)Nc2cccc(Cl)c2)CC1
771 | CC(=O)N1CCc2cc(-c3ccc(C(=O)N4CCN(c5ncccn5)CC4)cc3)ccc21
1240 | Cc1nc(-c2cc(S(=O)(=O)N3CCN(c4ccccc4Cl)CC3)c(C)s2)cs1
778 | CCCN1C(=O)c2c(C(=O)NCc3ccc(F)cc3)ncn2CC1(C)C(=O)NCc1ccc(F)cc1 (stereo not given)
781 | CCC(C)NC(=O)c1ccc2c(c1)CCCN2S(=O)(=O)CC (stereo not given)
588 | Cc1ccc(-c2[nH]ncc2CN2CCC3(CC2)CC(O)CCO3)cc1 (stereo not given)
1090 | CCCn1cc(C(=O)NCCC2=CCCCC2)c2nn(-c3ccccc3)c(=O)c-2c1
795 | COCCN1C(=O)CCc2cc(NS(=O)(=O)c3c(C)cccc3Cl)ccc21

RP-LC retention time [s] | SMILES
910 | Cc1nc(N2CCCC(C(=O)Nc3ccc(F)cc3)C2)c2c(C)c(C)oc2n1 (stereo not given)
639 | O=C1CCN(C(=O)C2CCN(C(=O)c3cccs3)CC2)CCCCCCN1
692 | O=C(CCC(=O)N1CC2CCCN2c2ccccc21)N1CCN(Cc2ccc3c(c2)OCO3)CC1 (stereo not given)
1110 | CCOC(=O)N1CCN(C(=O)Cc2c(C)nn(-c3nc(-c4ccc(Cl)cc4)cs3)c2C)CC1
1050 | Cc1cccc(-c2nnc(-c3cccc(S(=O)(=O)N4CCCC4)c3)o2)c1
867 | CCc1ccc(S(=O)(=O)Nc2ccc(C3(C(=O)NCC4CCCO4)CC3)cc2)cc1 (stereo not given)
852 | COC(=O)CNC(=O)N1CCCCCC1c1ccc(C)cc1 (stereo not given)
670 | COC(=O)c1cc(N2CCN(C)CC2)nc2c(C)cccc12
720 | CCN1CCCn2cc(S(=O)(=O)Nc3ccccc3C)cc2C1=O
654 | CCCc1ccc(S(=O)(=O)N2CCC3(CCC(CN4CCN(C)CC4)O3)CC2)cc1 (stereo not given)
735 | CC(C)c1nnc(-c2cccnc2N2CCN(C(=O)c3ccco3)CC2)o1
893 | COc1ccccc1CNC(=O)C1(c2ccc(NS(C)(=O)=O)cc2)CCCCC1
935 | CCc1ccccc1NC(=O)COc1cc(C)nc(N2CCN(c3ccccc3)CC2)n1
820 | CCc1ccc(CNC(=O)C2CCCN(c3nccc(C)n3)C2)cc1 (stereo not given)
761 | CS(=O)(=O)N1CCCN(C(=O)C2(c3ccccc3)CC2)c2ccccc21
594 | CCOc1ccccc1NC(=O)NC1CCN(c2cc(N3CCCC3)cnn2)C1 (stereo not given)
932 | CCOC(=O)c1c(S(=O)(=O)N2CCC(C(=O)NC3CCCCCCC3)CC2)c(C)n(C)c1C
640 | CCCN1C(=O)c2c(C(=O)OC)ncn2CC1(C)C(=O)NCc1ccccc1 (stereo not given)
909 | Cc1ccc(N2CCC(NC(=O)Nc3ccccc3Cl)C2=O)cc1C (stereo not given)
590 | O=C(CN1C(=O)C2CCCCN2C(=O)c2ccccc21)NCCN1CCCCCC1 (stereo not given)
704 | CCC1CCCCN1CCCNC(=O)Cn1ccc2cc(S(=O)(=O)N3CCCCCC3)ccc21 (stereo not given)
812 | COc1ccc(CNC(=O)N2CCN(Cc3nc4cc(-c5ccccc5)ccc4o3)CC2)cc1
673 | Cc1nn(CCCC(=O)N2CCOCC2)c(=O)c2nn(-c3ccccc3)c(C)c12
